Like-named read-outs stand apart in the source and are kept apart here.
Experiments:
[1] = target: T1, FL-SMARCA2 (full-length human SMARCA2 isoform 1) (Homo sapiens, UniProt P51531); experiment: SMARCA2 ATPase activity assay (ADP-Glo, chicken mononucleosome substrate); type: biochemical; details: ATPase assay, enzyme 5 nM, ATP 250 uM, chicken mononucleosome 10 nM, 30 min preincubation
T1 construct: FLAG tag (YKDDDDK) (C); made in house; host or cells: Sf21 insect cells (baculovirus, pFastBacI)

[2] = test system: A549 cells; experiment: High-throughput proliferation (HTP) assay for A549 cells (CellTiter-Glo, 7 days); type: cell-based; details: Homo sapiens, 168 h, read-out: A549 SMARCA2 IC50
Method in brief: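 A549 cells plated at 62.5 cells/well in F12K + 10% HI-FBS onto pre-dispensed compound, grown 7 days at 37° C., 5% CO2. Viability by CellTiter-Glo luminescence after 30 min at RT; EC50/IC50 from DMSO (0%) and 10 μM Doxorubicin (100%) inhibition controls.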

[3] = target: FL-SMARCA4 (Homo sapiens, UniProt P51532); experiment: SMARCA4 ATPase activity assay (ADP-Glo, chicken mononucleosome substrate)
FL-SMARCA4, sequence (P51532 whole entry): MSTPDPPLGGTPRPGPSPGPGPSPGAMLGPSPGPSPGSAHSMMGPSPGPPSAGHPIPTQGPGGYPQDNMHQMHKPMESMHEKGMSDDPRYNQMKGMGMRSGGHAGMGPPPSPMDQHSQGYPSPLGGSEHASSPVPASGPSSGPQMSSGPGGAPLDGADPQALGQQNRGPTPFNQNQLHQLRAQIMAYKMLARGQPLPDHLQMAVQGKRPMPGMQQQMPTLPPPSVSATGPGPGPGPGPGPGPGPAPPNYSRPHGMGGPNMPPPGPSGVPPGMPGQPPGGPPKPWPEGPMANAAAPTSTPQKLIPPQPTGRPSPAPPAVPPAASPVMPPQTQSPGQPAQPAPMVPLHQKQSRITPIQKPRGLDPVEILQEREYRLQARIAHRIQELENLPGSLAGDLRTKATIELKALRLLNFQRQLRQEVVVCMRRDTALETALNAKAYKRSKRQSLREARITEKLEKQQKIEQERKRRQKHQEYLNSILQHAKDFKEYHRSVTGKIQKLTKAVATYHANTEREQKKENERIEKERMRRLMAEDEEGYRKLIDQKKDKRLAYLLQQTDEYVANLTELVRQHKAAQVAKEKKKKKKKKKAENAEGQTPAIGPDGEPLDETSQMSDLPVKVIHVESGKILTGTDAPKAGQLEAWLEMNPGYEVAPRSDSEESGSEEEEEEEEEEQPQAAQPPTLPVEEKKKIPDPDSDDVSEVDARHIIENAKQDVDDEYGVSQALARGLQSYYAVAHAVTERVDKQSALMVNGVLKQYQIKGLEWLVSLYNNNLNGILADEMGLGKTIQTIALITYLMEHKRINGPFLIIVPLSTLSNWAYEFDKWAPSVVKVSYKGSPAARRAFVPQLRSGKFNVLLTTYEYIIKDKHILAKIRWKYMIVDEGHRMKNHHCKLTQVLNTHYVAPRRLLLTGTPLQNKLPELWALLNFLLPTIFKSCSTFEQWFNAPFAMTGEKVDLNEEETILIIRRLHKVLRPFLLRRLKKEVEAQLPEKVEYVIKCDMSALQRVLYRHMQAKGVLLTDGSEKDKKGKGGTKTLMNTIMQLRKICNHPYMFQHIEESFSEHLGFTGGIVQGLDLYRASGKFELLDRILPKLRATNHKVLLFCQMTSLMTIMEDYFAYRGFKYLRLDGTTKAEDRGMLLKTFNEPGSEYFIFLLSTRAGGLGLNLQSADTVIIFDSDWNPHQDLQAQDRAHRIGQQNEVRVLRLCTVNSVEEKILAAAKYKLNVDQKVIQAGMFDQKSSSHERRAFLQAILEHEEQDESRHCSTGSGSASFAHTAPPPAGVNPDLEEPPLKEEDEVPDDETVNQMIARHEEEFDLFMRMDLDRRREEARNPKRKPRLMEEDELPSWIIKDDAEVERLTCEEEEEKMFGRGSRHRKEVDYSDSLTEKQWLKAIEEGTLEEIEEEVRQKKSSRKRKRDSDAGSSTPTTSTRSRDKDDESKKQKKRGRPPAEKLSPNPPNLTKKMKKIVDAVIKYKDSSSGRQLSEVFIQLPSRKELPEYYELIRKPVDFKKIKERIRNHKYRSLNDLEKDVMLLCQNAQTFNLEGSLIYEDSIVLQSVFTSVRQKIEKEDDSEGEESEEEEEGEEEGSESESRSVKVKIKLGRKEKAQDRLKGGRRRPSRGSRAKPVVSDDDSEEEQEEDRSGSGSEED

[4] = test system: H358 cells; experiment: High-throughput proliferation (HTP) assay for H358 cells (CellTiter-Glo, 7 days); type: cell-based; details: Homo sapiens, NCI-H358, 168 h, read-out: H358 SMARCA2 IC50
Method in brief: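 Cells were plated at 1,000 cells/well in RPMI 1640 + 10% HI-FBS + 1% pen/strep on pre-dispensed compound and incubated 7 days at 37 °C, 5% CO2. Viability was read as ATP luminescence with CellTiter-Glo after 30 min at RT. DMSO served as 0% and 10 µM doxorubicin as 100% inhibition for EC50/IC50.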

[5] = FL-SMARCA4 IC>50, Table 3c.2, ATPase assay, enzyme 5 nM, ATP 250 uM, chicken mononucleosome 10 nM, 30 min preincubation
[6] = Table 3d.1, read-out: FL-SMARCA2 IC>50

T1 sequence (P51531 with tags, fused parts or gaps): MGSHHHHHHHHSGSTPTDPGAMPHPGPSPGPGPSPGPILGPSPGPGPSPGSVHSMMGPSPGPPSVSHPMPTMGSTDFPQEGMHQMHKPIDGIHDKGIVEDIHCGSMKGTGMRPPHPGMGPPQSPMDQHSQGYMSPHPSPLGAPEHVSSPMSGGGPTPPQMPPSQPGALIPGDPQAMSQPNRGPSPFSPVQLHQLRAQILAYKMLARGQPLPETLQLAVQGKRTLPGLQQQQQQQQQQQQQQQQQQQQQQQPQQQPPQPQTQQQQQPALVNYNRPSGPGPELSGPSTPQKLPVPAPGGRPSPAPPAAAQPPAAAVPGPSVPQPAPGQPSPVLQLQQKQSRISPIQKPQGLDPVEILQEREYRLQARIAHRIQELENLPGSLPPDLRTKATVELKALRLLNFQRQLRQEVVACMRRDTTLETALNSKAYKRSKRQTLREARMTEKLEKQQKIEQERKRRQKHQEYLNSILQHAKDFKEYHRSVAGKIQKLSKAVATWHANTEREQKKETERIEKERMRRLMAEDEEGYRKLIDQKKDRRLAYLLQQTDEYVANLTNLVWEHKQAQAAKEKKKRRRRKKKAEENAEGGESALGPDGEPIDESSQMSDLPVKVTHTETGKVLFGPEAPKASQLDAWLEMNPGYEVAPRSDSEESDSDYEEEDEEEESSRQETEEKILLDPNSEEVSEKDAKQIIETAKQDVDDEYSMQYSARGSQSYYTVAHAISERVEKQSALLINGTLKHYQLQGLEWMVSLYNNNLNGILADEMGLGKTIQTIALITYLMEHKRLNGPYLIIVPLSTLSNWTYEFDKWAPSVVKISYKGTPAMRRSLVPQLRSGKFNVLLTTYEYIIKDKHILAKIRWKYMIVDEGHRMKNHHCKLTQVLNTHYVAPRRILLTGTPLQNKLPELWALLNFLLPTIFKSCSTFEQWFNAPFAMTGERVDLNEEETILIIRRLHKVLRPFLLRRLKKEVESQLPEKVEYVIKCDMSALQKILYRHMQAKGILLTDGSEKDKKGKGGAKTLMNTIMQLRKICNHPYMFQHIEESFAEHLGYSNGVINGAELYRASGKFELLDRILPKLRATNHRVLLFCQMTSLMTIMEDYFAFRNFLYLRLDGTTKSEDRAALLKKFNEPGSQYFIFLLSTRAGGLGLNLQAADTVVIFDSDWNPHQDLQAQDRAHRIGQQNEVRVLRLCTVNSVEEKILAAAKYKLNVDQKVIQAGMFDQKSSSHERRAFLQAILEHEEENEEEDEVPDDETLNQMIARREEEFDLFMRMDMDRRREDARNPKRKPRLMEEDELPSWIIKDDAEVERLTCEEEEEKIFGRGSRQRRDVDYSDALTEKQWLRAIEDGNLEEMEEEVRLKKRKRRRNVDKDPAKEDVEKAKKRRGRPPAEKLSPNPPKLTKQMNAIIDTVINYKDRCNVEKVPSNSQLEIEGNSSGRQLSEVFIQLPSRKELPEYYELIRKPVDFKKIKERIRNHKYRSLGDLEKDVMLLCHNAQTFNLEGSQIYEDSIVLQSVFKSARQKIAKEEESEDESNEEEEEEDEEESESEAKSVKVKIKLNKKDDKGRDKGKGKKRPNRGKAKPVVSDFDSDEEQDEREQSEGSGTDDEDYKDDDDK

Structure (SMILES) | IC50 ([1]; Table 3c.1) | IC50 [2] | IC50 [3, 5] | IC50 [4] | IC50 [1, 6] | IC50 ([3]; FL-SMARCA4 IC50) | IC50 ([1]; Table 3.1) | IC50 ([3]; FL-SMARCA4 IC50, Table 3.2, ATPase assay, enzyme 5 nM, ATP 250 uM, chicken mononucleosome 10 nM, 30 min preincubation)
NC(=O)c1cccc(C#Cc2cc(C(=O)Nc3cc(F)c(=O)n(CC(F)F)c3)sc2Cl)c1 [Compound 57c] | 20.9 nM | 3.61 µM | 99.9 nM | > 10 µM |  |  |  | 
Cc1cc(C#Cc2cc(C(=O)Nc3cc(C#N)c(=O)n(CC(F)F)c3)sc2Cl)sn1 [Compound 92d] |  | 1.99 µM |  | > 10 µM | 31.3 nM | 155 nM |  | 
O=C(Nc1cc(F)c(=O)n(CC(F)F)c1)c1cc(C#Cc2ccc(Cl)cc2)c(Cl)s1 [Compound 35c] | 698 nM | 3.7 µM | 905 nM | 8.76 µM |  |  |  | 
Cn1cnc(C#Cc2cc(C(=O)Nc3cc(F)c(=O)n(CC(F)F)c3)sc2Cl)n1 [Compound 67c] | 371 nM | > 10 µM | 807 nM | > 10 µM |  |  |  | 
N#Cc1cccc(C#Cc2cc(C(=O)Nc3cc(F)c(=O)n(CC(F)F)c3)sc2Cl)c1 [Compound 34c] | 93.8 nM | 1.46 µM | 233 nM | > 10 µM |  |  |  | 
CC#Cc1cc(C(=O)Nc2cc(F)c(=O)n(CC(F)F)c2)sc1Cl [Compound 85c] | 81.1 nM | 2.37 µM | 233 nM | > 10 µM |  |  |  | 
N#Cc1sc(C(=O)Nc2cc(F)c(=O)n(CC(F)F)c2)cc1C#C[C@H]1C[C@@H](O)C1 [Compound 105d] |  | 4.29 µM |  | > 10 µM | 31.4 nM | 90.6 nM |  | 
N#Cc1cc(C(=O)Nc2cc(OC(F)(F)F)c(=O)n(CC(F)F)c2)sc1C(F)(F)F [Compound 103d] |  | > 10 µM |  | > 10 µM | > 50000 nM | > 50000 nM |  | 
CNC(=O)C#Cc1cc(C(=O)Nc2cc(F)c(=O)n(CC(F)F)c2)sc1Cl [Compound 72d] |  | 5.76 µM |  | > 10 µM | 481 nM | 1310 nM |  | 
N#Cc1cc(C(=O)Nc2cc(F)c(=O)n(CC(F)F)c2)sc1C(F)F [Compound 69d] |  | 2.04 µM |  | > 10 µM | 26.6 nM | 120 nM |  | 
O=C(Nc1cc(F)c(=O)n(CC(F)F)c1)c1cc(C#CC2CCCOC2)c(Cl)s1 (stereo not shown) [Compound 68d] |  | 2.41 µM |  | > 10 µM | 72.5 nM | 205 nM |  | 
O=C(Nc1cc(F)c(=O)n(CC(F)F)c1)c1cc(C#CC(F)(F)F)c(Cl)s1 [Compound 74d] |  | 1.65 µM |  | 2.44 µM | 462 nM | 1010 nM |  | 
Cn1cc(C#Cc2cc(C(=O)Nc3cc(F)c(=O)n(CC(F)F)c3)sc2Cl)cn1 [Compound 5c] | 28.5 nM | 1.16 µM | 75.9 nM | > 10 µM |  |  |  | 
CNC(=O)c1cc(C#Cc2cc(C(=O)Nc3cc(F)c(=O)n(CC(F)F)c3)sc2Cl)on1 [Compound 55d] |  | > 10 µM |  | > 10 µM | 92.6 nM | 246 nM |  | 
N#Cc1cc(C(=O)Nc2cc(F)c(=O)n(CC3(F)CC3)c2)sc1C(F)(F)F [Compound 85d] |  | 4.17 µM |  | > 10 µM | 104 nM | 596 nM |  | 
O=C(Nc1cc(F)c(=O)n(CC(F)F)c1)c1cc(C#Cc2cnc3n2CCOC3)c(Cl)s1 [Compound 95d] |  | > 10 µM |  | > 10 µM | 334 nM | 1060 nM |  | 
O=C(Nc1cc(F)c(=O)n(CC(F)F)c1)c1cc(C#Cc2cccnc2)c(C(F)(F)F)s1 [Compound 65c] | 33.7 nM | 4.32 µM | 154 nM | > 10 µM |  |  |  | 
N#Cc1cc(C(=O)Nc2cc(C#N)c(=O)n(CC(F)F)c2)sc1C(F)(F)F [Compound 56d] |  | 6.25 µM |  | > 10 µM | 98.4 nM | 535 nM |  | 
N#Cc1cc(NC(=O)c2cc(Cl)c(C(F)(F)F)s2)cn(CC(F)F)c1=O [Compound 86d] |  | 3.95 µM |  | 8.56 µM | 101 nM | 512 nM |  | 
N#Cc1cc(C(=O)Nc2cc(F)c(=O)n(CC(F)F)c2)sc1C(F)(F)Cl [Compound 78d] |  | 6.37 µM |  | > 10 µM | 57.5 nM | 377 nM |  | 
O=C(Nc1cc(F)c(=O)n(CC(F)F)c1)c1cc(C#CC2OCCCO2)c(Cl)s1 [Compound 101d] |  | 3.74 µM |  | > 10 µM | 166 nM | 285 nM |  | 
O=C(Nc1cc(F)c(=O)n(CC(F)F)c1)c1cc(C#CC2COC2)cs1 [Compound 73c] | 847 nM | 6.01 µM | 2930 nM | > 10 µM |  |  |  | 
O=C(Nc1cc(F)c(=O)n(CC(F)F)c1)c1cc(C#Cc2cn[nH]c2)c(Cl)s1 [Compound 83c] | 19.4 nM | 3.47 µM | 62.9 nM | > 10 µM |  |  |  | 
Cc1sc(C(=O)Nc2cc(F)c(=O)n(CC(F)F)c2)cc1C#N [Compound 81d] |  | 2.37 µM |  | > 10 µM | 67 nM | 241 nM |  | 
Cc1cc(NC(=O)c2cc(C#N)c(C(F)(F)F)s2)cn(CC(F)F)c1=O [Compound 75d] |  | > 10 µM |  | > 10 µM | 948 nM | 11300 nM |  | 
CNC(=O)c1cccc(C#Cc2cc(C(=O)Nc3cc(F)c(=O)n(CC(F)F)c3)sc2Cl)c1 [Compound 86c] | 17.2 nM | 1.73 µM | 45.1 nM | > 10 µM |  |  |  | 
O=C(Nc1cc(F)c(=O)n(CC(F)F)c1)c1cc(C#CC2CCCNC2)c(Cl)s1 (stereo not shown) [Compound 108d] |  | > 10 µM |  | > 10 µM | 542 nM | 1780 nM |  | 
O=C(Nc1cc(F)c(=O)n(CC(F)F)c1)c1cc(/C=C/c2cccnc2)c(Cl)s1 [Compound 95c] | 603 nM | > 10 µM | 5710 nM | > 10 µM |  |  |  | 
O=C(Nc1cc(F)c(=O)n(CC(F)F)c1)c1cc(C#CC2CCO2)c(Cl)s1 (stereo not shown) [Compound 77d] |  | 7.44 µM |  | > 10 µM | 160 nM | 463 nM |  | 

Now from value to compound:

IC50 ([1]; Table 3c.1) | IC50 [2] | IC50 [3, 5] | IC50 [4] | IC50 [1, 6] | IC50 ([3]; FL-SMARCA4 IC50) | IC50 ([1]; Table 3.1) | IC50 ([3]; FL-SMARCA4 IC50, Table 3.2, ATPase assay, enzyme 5 nM, ATP 250 uM, chicken mononucleosome 10 nM, 30 min preincubation) | Structure (SMILES)
8030 nM | > 10 µM | 16100 nM | > 10 µM |  |  |  |  | CN(C)Cc1cc(C#Cc2cc(C(=O)Nc3cc(F)c(=O)n(CC(F)F)c3)sc2Cl)n(C)n1 [Compound 149c]
5.22 nM | 1.82 µM | 6.99 nM | 1.49 µM |  |  |  |  | N#Cc1nc(C#Cc2cc(C(=O)Nc3cc(F)c(=O)n(CC(F)F)c3)sc2Cl)cs1 [Compound 117c]
10.5 nM | 1.95 µM | 26.5 nM | > 10 µM |  |  |  |  | NC(=O)c1nc(C#Cc2cc(C(=O)Nc3cc(F)c(=O)n(CC(F)F)c3)sc2Cl)cs1 [Compound 111c]
20.1 nM | 1.68 µM | 69.1 nM | > 10 µM |  |  |  |  | Cn1ccc(C#Cc2cc(C(=O)Nc3cc(F)c(=O)n(CC(F)F)c3)sc2Cl)n1 [Compound 144c]
 | 7.18 µM |  | > 10 µM | 245 nM | 544 nM |  |  | CN1CC(C#Cc2cc(C(=O)Nc3cc(F)c(=O)n(CC(F)F)c3)sc2Cl)CCC1=O (stereo not shown) [Compound 118d]
51.3 nM | > 10 µM | 143 nM | > 10 µM |  |  |  |  | CNC(=O)c1cncc(C#Cc2cc(C(=O)Nc3cc(F)c(=O)n(CC(F)F)c3)sc2Cl)c1 [Compound 129c]
 | 3.37 µM |  | 6.75 µM | 30.9 nM | 132 nM |  |  | O=C(Nc1cc(F)c(=O)n(CC(F)F)c1)c1cc(C#Cc2nncs2)c(Cl)s1 [Compound 130d]
16.6 nM | 1.21 µM | 44 nM | > 10 µM |  |  |  |  | CNC(=O)c1cc(C#Cc2cc(C(=O)Nc3cc(F)c(=O)n(CC(F)F)c3)sc2Cl)ccn1 [Compound 130c]
 | 0.492 µM |  | > 10 µM |  |  | 23 nM | 108 nM | O=C(Nc1cc(F)c(=O)n(CC(F)F)c1)c1cc(C#CC2COC2)c(Cl)s1 [Compound 343]
29.6 nM | 0.889 µM | 111 nM | 4.86 µM |  |  |  |  | N#Cc1cc(C#Cc2cc(C(=O)Nc3cc(F)c(=O)n(CC(F)F)c3)sc2Cl)ccn1 [Compound 151c]
 | > 10 µM |  | > 10 µM | 1680 nM | 4610 nM |  |  | CC(N)C#Cc1cc(C(=O)Nc2cc(F)c(=O)n(CC(F)F)c2)sc1Cl (stereo not shown) [Compound 138d]
 | 2.12 µM |  | > 10 µM | 70 nM | 201 nM |  |  | O=C(Nc1cc(F)c(=O)n(CC(F)F)c1)c1cc(C#C[C@H]2CCC[C@@H](O)C2)c(Cl)s1 [Compound 120d]
206 nM | 3.79 µM | 548 nM | > 10 µM |  |  |  |  | O=C1CC(C#Cc2cc(C(=O)Nc3cc(F)c(=O)n(CC(F)F)c3)sc2Cl)CN1 (stereo not shown) [Compound 116c]
 | 8.92 µM |  | > 10 µM | 252 nM | 673 nM |  |  | O=C(Nc1cc(F)c(=O)n(CC(F)F)c1)c1cc(C#CCn2ccnc2)c(Cl)s1 [Compound 116d]

From patent US20220356174A1, “PYRIDIN-2-ONE COMPOUNDS USEFUL AS SMARCA2 ANTAGONISTS” (Epizyme, Inc., priority 2018, published 2022)
